Measured values as given in patent publication US20220054532A1, “VETERINARY COMPOSITIONS AND METHODS OF USE THEREFOR” (priority 2019, published 2022).

Key:
[1] = system: dogs with a history of severe, chronic skin issues, atopy, pruritis, yeast overgrowth, and/or infection; assay: Example 16: skin conditions (itch score) and side effects in dogs (CBD Complex); format: in vivo; conditions: for Average Side Effect Score: dogs with skin conditions, 60 days BID; for Initial Itch Score / Final Itch Score: itch scale 0 (no itching) to 10 (extremely severe); for Initial Itch Score: day 0; for Final Itch Score: day 60, BID
Excerpt: (§1) This example examines the ability of embodiments of the invention versus prednisone to treat skin conditions.
(§2) The patient group is twenty-four dogs with a history of severe, chronic skin issues, atopy, pruritis, yeast overgrowth, and/or infection, as diagnosed by their referring veterinarian. The patient group is broken into six groups of four animals. The first group receives prednisone as the sole active agent; the second group receives a composition comprising prednisone and HMW HA as the active agents; the third group receives a composition comprising HMW HA as the sole active agent; the fourth group receives a composition comprising CBD as the sole active agent; the fifth group receives a composition comprising HMW HA and CBD Complex as the active agents; and the sixth group receives a composition comprising HMW HA, CBD Complex, quercetin, and nettles as the active agents.
(§3) Each composition is administered for a period of sixty (60) days, BID. Each dog is evaluated on days 0 (“Initial Score”), 20, 40, and 60 (“Final Score”) of treatment. The results are averaged and characterized on a scale of 0 (no itching—normal dog), 2 (very mild itching—only occasional episodes), 4 (mild itching), 6 (moderate itching—regular episodes), 8 (severe itching—prolonged episodes), to 10 (extremely severe itching—almost continuous).

[2] = system: dogs with a history of severe, chronic skin issues, atopy, pruritis, yeast overgrowth, and/or infection; assay: Example 8: skin conditions (itch score) and side effects in dogs; format: in vivo; set-up: Average Side Effect Score: scale not given here; conditions: for Average Side Effect Score: dogs with skin conditions, 60 days BID; for Initial Itch Score / Final Itch Score: itch scale 0 (no itching) to 10 (extremely severe); for Initial Itch Score: day 0; for Final Itch Score: day 60, BID
Excerpt: as §1
as §2, with “CBD” for “CBD Complex”, “CBD,” for “CBD Complex,”
as §3
The following scores are observed and the results depicted in FIG. 8: […]

Compound | Average Side Effect Score [1] | Initial Itch Score [1] | Final Itch Score [1] | Average Side Effect Score [2] | Initial Itch Score [2] | Final Itch Score [2]
C=C(C)[C@@H]1CCC(C)=C[C@H]1c1c(O)cc(CCCCC)cc1O [CBD Alone, 2-[(1R,6R)-3-methyl-6-prop-1-en-2-ylcyclohex-2-en-1-yl]-5-pentylbenzene-1,3-diol] | .5 | 9 | 5 | .5 | 9 | 5
hyaluronic acid [HMW HA Alone] | 4 | 9 | 7 | 4 | 9 | 7
